The values below come from ChEMBL document CHEMBL1132007, “The synthesis and biological evaluation of non-peptidic matrix metalloproteinase inhibitors” (Bioorg Med Chem Lett, 1999).

The IC50 is the point on the concentration scale where inhibition reaches its midpoint. The low end stands for higher potency, the high end for lower potency. Usually Cmax stands for the peak of the concentration-time curve. What is called AUC is concentration integrated over time.

One data set concerns the target Neutrophil collagenase (Homo sapiens, UniProt P22894).
Data set [1] has as its target Stromelysin-1 (Homo sapiens) (UniProt P08254).
The next data set addresses T1, Interstitial collagenase (Homo sapiens, UniProt P03956).
T1 sequence (P03956 whole entry): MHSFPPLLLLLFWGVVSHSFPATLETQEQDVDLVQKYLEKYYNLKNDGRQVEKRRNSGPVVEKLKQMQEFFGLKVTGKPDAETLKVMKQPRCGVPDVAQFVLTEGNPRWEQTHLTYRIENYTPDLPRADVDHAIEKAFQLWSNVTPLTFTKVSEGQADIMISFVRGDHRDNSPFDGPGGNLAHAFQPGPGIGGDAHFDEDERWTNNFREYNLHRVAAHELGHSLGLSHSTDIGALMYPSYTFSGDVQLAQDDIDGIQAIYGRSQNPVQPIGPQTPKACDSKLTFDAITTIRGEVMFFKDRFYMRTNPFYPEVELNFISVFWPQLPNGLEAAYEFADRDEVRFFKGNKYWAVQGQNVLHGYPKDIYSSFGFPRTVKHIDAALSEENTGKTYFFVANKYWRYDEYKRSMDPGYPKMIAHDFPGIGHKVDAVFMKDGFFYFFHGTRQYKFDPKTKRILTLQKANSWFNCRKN

A short description of the next data set: in vivo. The conditions noted are these: rat, po.
The species named for a further data set is Rattus norvegicus. The conditions noted are these: in vivo, po.

Sequence of Neutrophil collagenase (P22894 whole entry): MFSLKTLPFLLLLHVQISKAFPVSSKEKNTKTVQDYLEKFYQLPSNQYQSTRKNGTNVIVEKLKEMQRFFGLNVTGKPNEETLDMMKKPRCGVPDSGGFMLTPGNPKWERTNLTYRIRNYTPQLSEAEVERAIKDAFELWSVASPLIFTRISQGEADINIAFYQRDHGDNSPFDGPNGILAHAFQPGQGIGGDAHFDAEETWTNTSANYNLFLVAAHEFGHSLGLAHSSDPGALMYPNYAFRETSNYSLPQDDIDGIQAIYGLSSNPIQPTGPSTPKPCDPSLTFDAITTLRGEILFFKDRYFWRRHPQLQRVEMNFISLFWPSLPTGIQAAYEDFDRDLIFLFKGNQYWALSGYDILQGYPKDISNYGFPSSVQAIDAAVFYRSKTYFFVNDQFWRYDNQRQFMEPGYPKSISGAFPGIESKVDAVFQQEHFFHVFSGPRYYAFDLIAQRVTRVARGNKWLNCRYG
Sequence of Stromelysin-1 (Homo sapiens) (P08254 whole entry, looked up): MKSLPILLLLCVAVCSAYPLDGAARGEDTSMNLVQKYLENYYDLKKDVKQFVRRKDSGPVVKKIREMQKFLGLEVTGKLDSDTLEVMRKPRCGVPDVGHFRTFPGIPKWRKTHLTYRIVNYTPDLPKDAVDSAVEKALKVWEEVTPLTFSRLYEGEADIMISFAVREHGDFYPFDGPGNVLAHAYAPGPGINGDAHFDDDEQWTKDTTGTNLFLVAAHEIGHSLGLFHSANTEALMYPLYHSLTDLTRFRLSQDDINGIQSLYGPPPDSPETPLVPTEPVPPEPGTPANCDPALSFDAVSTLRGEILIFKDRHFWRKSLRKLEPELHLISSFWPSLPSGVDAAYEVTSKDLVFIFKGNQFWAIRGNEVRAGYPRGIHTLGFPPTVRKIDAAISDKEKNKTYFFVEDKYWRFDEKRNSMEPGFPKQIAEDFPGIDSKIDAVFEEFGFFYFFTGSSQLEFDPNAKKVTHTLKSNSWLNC

For the molecule `CC(C)C[C@@H](C(=O)N1CCCCC1)[C@H](O)C(=O)NO`, the values for the IC50 on Neutrophil collagenase and against Interstitial collagenase were 1000 nM and 800 nM, respectively. The IC60 in data set [1] was found to be 100000 nM.
At Interstitial collagenase, `CS(=O)(=O)N(C[C@H](C(=O)NO)[C@@H](CC1CCCC1)C(=O)N1CCCCC1)C1CC1` yielded an IC50 of 10 nM.
As for `CN(C[C@H](C(=O)NO)[C@@H](CC1CCCC1)C(=O)N1CCOCC1)S(C)(=O)=O`, the IC50 against Interstitial collagenase came out at 5 nM.
Still for that read-out and setting: as for `CN(C[C@H](C(=O)NO)[C@@H](CC1CCCC1)C(=O)N1CCCCC1)S(=O)(=O)c1cccc2ccccc12`, the figure is 6 nM; as for `CC(C)C[C@@H](C(=O)N(C)C)[C@H](CN(C)S(C)(=O)=O)C(=O)NO`, 1000 nM; as for `CN(C[C@H](C(=O)NO)[C@@H](CC1CCCC1)C(=O)N1CCCCC1)S(=O)(=O)c1ccc(Cl)cc1`, 9 nM.
Molecule `CN(C[C@H](C(=O)NO)[C@@H](CC1CCCC1)C(=O)N1CCCCC1)S(C)(=O)=O` showed a Cmax at 0.5 h in the data set “in vivo” of 172 ng/mL. In the data set filed under Rattus norvegicus, this molecule had an AUC of 662 ng·h/mL.
In the case of `CC(C)C[C@@H](C(=O)N1CCOCC1)[C@H](CN1C(=O)c2ccccc2C1=O)C(=O)NO`, the concentration for half-maximal inhibition (IC50) came to 600 nM against Neutrophil collagenase and 20 nM at Interstitial collagenase.
Molecule `CC(C)C[C@@H](C(=O)N1CCCCC1)[C@H](CN(C)S(C)(=O)=O)C(=O)NO` gave an IC50 at Interstitial collagenase of 60 nM.
Molecule `COc1ccc(S(=O)(=O)N(C)C[C@H](C(=O)NO)[C@@H](CC2CCCC2)C(=O)N2CCOCC2)cc1` gave an IC50 against Interstitial collagenase of 10 nM.
